Results on two compounds are retold here after US20100227931A1, “ANTIFUNGAL COMPOSITION” (Kao Corporation, priority 2007, published 2010).

The data set is described as follows: Measurement of calcium-chelating constant (Ca2+ ion electrode, pH 10 buffer). It is filed as physicochemical. The following applies: 0.1 mol/L NH4Cl-NH4OH buffer pH 10; 1:1 chelate complex assumed. Here is the method:
As used herein, the “calcium-chelating constant” refers a value determined by the following method. A solution of 0.1 mol/L NH4Cl-NH4OH (pH 10) is prepared as a buffer. The buffer is used for preparing all sample solutions. To measure a concentration of Ca^2+, an ion meter, Orion […], and a Ca^2+ ion electrode are used. First, a relationship between calcium chloride concentration and potential of the electrode is determined to generate a calibration curve. […] A concentration of remaining Ca^2+ is measured using the Ca^2+ ion electrode. […] [formula] [M]total: initial Ca^2+ concentration [L]total: initial chelating agent concentration [M]: remaining Ca^2+ concentration

For the compound `O=C(O)CN(CCN(CC(=O)O)CC(=O)O)CC(=O)O` [EDTA, ethylenediaminetetraacetic acid], the calcium-chelating constant worked out at 12.

Consider `O=C(O)CC(O)(CC(=O)O)C(=O)O` [citric acid], for which the calcium-chelating constant stood at 3.
